Measurements as given in ChEMBL document CHEMBL4028852, “Design of a Chemical Probe for the Bromodomain and Plant Homeodomain Finger-Containing (BRPF) Family of Proteins” (J Med Chem, 2017).
Values after ≈ are worked out from the molar mass of the structure shown.

How the values were obtained:
[1] = Aqueous solubility of compound; assay type: physicochemical; settings: buffer
[2] = Inhibition of cell proliferation of human NCI60 cells at 10 uM after 48 hrs by SRB assay; assay type: functional; settings: NCI60, 48 h
[3] = target: T1, Transcription intermediary factor 1-alpha (Homo sapiens, UniProt O15164); assay: Inhibition of TRIM24 (unknown origin) using tetra-acetylated histone 4/ mono-acetylated K14 histone 3 as substrate after 30 mins by alphascreen assay
T1 sequence (O15164 whole entry): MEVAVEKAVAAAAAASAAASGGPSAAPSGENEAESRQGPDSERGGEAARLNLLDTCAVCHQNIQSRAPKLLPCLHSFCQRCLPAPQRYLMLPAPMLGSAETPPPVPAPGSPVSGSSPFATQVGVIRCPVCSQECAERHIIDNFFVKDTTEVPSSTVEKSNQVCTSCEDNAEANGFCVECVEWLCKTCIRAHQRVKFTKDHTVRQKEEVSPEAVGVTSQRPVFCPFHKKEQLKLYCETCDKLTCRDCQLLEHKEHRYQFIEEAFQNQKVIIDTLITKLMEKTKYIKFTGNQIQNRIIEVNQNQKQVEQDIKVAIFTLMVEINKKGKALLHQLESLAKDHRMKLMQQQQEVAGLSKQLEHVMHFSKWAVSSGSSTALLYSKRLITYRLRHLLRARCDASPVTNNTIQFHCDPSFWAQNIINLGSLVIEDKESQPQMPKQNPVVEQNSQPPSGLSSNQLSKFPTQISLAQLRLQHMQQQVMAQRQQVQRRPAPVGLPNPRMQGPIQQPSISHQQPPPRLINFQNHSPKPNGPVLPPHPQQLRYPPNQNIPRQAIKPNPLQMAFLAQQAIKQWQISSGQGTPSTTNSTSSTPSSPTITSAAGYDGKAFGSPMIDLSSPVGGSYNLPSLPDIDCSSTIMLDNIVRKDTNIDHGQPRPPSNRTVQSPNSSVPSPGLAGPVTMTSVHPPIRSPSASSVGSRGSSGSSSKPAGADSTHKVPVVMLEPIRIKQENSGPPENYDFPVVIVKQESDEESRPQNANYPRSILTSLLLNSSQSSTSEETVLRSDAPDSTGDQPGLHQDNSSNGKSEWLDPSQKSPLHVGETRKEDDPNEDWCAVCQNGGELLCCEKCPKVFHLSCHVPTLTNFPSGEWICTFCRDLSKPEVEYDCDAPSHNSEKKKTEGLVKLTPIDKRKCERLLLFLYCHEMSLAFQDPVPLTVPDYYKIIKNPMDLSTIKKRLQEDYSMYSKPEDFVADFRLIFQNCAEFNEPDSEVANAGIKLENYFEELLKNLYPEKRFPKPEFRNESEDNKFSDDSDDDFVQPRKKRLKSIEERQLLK

[4] = Inhibition of CYP450 (unknown origin); assay type: ADME; settings: human
Peregrin = target: T2, Peregrin (Homo sapiens, UniProt P55201); assay: Inhibition of His-tagged BRPF1 (unknown origin) after 30 mins by alphaScreen assay
T2 sequence (P55201 whole entry): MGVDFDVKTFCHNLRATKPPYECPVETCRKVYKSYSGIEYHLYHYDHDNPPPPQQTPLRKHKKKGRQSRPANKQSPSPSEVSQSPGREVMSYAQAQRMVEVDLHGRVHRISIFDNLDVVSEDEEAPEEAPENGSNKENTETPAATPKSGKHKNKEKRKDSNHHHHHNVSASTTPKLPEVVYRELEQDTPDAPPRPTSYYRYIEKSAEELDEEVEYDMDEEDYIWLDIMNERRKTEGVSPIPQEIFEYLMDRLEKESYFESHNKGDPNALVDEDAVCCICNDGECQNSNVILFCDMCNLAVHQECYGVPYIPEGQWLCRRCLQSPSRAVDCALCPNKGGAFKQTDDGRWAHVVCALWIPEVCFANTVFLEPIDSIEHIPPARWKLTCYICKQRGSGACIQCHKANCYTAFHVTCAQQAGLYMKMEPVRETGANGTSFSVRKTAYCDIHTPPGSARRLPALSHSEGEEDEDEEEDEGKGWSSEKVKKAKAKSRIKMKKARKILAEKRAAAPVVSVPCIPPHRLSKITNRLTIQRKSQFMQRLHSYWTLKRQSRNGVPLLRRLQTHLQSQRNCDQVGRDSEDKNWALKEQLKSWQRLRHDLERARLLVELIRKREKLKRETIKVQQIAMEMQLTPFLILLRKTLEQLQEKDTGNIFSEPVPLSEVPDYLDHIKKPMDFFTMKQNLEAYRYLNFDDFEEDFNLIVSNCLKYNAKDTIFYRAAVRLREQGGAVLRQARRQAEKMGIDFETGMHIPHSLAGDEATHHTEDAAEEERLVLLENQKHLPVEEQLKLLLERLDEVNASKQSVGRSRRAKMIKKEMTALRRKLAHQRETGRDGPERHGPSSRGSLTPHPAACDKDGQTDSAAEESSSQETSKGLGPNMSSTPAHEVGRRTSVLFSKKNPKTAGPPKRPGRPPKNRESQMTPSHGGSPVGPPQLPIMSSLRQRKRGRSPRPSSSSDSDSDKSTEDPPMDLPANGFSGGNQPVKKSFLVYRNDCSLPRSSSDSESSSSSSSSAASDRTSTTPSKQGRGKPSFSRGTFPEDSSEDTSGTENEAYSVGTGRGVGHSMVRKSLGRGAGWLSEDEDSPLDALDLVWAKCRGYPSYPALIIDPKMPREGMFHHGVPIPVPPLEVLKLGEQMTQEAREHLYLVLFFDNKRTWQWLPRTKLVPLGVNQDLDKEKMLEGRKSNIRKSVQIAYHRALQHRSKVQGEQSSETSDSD

[5] = Apparent permeability across basolateral to apical side in human Caco2 cells at 10 uM after 2 hrs by LC-MS/MS analysis; assay type: ADME, cell-based; settings: Caco-2

COc1cc(C#N)ccc1S(=O)(=O)Nc1ccc2c(c1)cc(C)c(=O)n2C
solubility [1]: 100 µM (≈ 38.3 µg/mL) | inhibition at 10 µM [2]: < 25% | IC50 [3]: > 10000 nM | inhibition (INH) [4]: Not Active | IC50 (Peregrin): 114 nM | Papp B→A at 2 h, 10 µM [5]: 52 ×10⁻⁶ cm/s
